Measured values as given in the NIST ThermoML archive (doi:10.1021/je060054+).
Numbers after ± are expanded uncertainties.

Experiment: refractive index (Na D-line) (dimensionless)
Settings: 298.15 K; 101.33 kPa; Liquid; Standard Abbe refractometry

Compound	refractive index
CCO [ethanol]	1.35941 ± 0.00073
CCOC(C)=O [ethyl acetate]	1.36978 ± 0.00072
CCCCCO [pentan-1-ol]	1.4077 ± 0.00073
O [water]	1.3325 ± 0.00072
